Assay results as given in patent US7674594B2, “Screening assay for inhibitors of TRPA1 activation by a lower alkyl phenol” (Redpoint Bio Corporation, priority 2006, dated 2010).
Entries after “also recorded” stand apart in the source; their conditions may differ. Read-outs that look alike come from different tables or passages of the source.

Columns and labels:
parental HEK293 cells = assay: Membrane potential dye fluorescence assay in parental (non-transfected) HEK293 cells; format: cell-based, human
hTRPA1 [1] = target: T1, hTRPA1 (Homo sapiens, UniProt O75762); assay: Membrane potential dye fluorescence assay (FLIPR/FLEXstation), activation of hTRPA1 in transfected HEK293 cells; format: cell-based
T1 construct: The full length hTRPA1 was amplified by PCR with Kpn1 and Xho1 restriction enzyme sites; expressed in transfected cells; also transient transfection
Experimental: Once expression of TRPA1 was confirmed, 100 μl of the Blue or Red FMP dye (Molecular Devices) was added to each well of plates seeded with the transiently transfected cells. The plate was then incubated in a 37° C./5% CO2 incubator for 1 hour. The plate was read in a FLEXStation microplate reader (Molecular Devices) with an excitation of 530 nm and an emission of 565 nm. The fluorescence was monitored for 3 minutes upon exposure of the cells to a TRPA1 activating agent (e.g., cinnamaldehyde).
(§1) Samples in a 384-well plate were evaluated in a 5 minute assay on the FLIPR-Tetra™ (Molecular Devices). The assay was performed on a FLIPR™ using the excitation 510-545 nm and emission 565-625 nm filter sets. TRPA1-Transfected HEK cells, 15,000/well, were seeded overnight on poly-D-lysine coated 384 well plates in 20 μl media. Membrane Potential Assay Dye Red (Molecular Devices), 20 μl/well, was added and the plates incubated for 1 hour in a 37° C. and 5% CO2 incubator. The plates were then removed from the incubator and equilibrated to room temperature for 15 minutes before reading on the FLIPR®. The plates were read on the FLIPR® for a total of 3 minutes. Baseline fluorescence was obtained on the FLIPR® for 10 seconds followed by addition (typically 10 μl) of each agonist by the FLIPR® and read for an additional 2 minutes and 50 seconds.

hTRPA1 [2] = target: T1, hTRPA1; assay: Modulation of agonist-activated TRPA1 in HEK293 cells expressing hTRPA1 (membrane potential dye); format: cell-based
Experimental: as §1
(§2) Appropriate control experiments are performed and can easily be determined by the skilled artisan.
(§3) HEK293 cells and CHO cells expressing TRPA1 were subjected to the assay described in Example 2.

hTRPV1 = target: T2, hTRPV1 (Homo sapiens, UniProt Q8NER1); assay: Membrane potential dye fluorescence assay, HEK293 cells expressing hTRPV1; format: cell-based
T2 construct: expressed in transfected cells
Experimental: as §1
(§4) HEK293 cells were stably transfected with one of hTRPA1, hTRPV1 or hTRPM5. CHO cells were stably transfected with one of hTRPM4B or TRPM5. Parental HEK293 and CHO cells were also used as a negative control.

hTRPM4B = target: T3, hTRPM4B (Homo sapiens, UniProt Q8TD43); assay: Membrane potential dye fluorescence assay, CHO cells expressing hTRPM4B; format: cell-based
T3 construct: expressed in transfected cells
Experimental: as §1, §4

hTRPM5 = target: T4, hTRPM5 (Homo sapiens, UniProt Q9NZQ8); assay: Membrane potential dye fluorescence assay, HEK293 or CHO cells expressing hTRPM5; format: cell-based
T4 construct: expressed in transfected cells
T4 sequence (Q9NZQ8 1-1165): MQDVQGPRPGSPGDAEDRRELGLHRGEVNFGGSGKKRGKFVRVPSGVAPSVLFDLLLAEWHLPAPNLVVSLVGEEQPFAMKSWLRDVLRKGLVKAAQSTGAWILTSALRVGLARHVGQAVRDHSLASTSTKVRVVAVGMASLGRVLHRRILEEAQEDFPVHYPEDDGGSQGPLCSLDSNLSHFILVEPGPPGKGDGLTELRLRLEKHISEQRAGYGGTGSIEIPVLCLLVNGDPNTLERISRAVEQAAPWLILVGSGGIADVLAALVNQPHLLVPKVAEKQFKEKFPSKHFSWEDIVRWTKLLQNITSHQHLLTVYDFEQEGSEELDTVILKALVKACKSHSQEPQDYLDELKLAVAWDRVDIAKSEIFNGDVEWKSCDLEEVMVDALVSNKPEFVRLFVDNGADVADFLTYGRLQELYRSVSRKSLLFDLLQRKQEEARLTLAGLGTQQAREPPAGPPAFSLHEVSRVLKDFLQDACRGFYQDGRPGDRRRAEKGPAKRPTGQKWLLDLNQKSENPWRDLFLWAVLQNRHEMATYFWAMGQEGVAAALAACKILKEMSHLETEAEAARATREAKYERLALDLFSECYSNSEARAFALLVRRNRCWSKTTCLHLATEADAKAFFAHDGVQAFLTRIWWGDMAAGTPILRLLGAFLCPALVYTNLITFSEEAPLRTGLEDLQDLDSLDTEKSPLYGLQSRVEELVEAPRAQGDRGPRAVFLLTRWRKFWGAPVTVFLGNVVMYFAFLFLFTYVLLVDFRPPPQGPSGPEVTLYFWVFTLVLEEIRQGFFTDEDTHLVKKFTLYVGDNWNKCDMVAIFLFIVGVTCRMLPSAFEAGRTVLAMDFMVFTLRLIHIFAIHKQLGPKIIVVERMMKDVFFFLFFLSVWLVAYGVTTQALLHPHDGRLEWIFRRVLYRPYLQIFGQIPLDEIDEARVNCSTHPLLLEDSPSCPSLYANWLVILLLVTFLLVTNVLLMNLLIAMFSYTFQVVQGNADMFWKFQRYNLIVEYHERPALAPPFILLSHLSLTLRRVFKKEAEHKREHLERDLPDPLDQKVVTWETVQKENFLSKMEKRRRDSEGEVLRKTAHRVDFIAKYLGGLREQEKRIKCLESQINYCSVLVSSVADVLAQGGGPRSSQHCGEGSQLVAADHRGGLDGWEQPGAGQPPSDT
Experimental: as §1, §4

mice = assay: Taste aversion (lick) assay in mice; format: in vivo, mouse
Experimental: In this assay, the ability of identified lower alkyl phenols to evoke taste aversion in mice was measured. Mice were exposed to increasing concentrations of lower alkyl phenols.

hTRPA1 [3] = target: T1, hTRPA1; assay: Modulation of agonist-activated TRPA1 in CHO cells expressing hTRPA1 (membrane potential dye); format: cell-based
Experimental: as §1, §2, §3

[4] = hTRPA1 HEK293 cells, increase in fluorescence of membrane potential dye

T1 sequence (O75762 whole entry): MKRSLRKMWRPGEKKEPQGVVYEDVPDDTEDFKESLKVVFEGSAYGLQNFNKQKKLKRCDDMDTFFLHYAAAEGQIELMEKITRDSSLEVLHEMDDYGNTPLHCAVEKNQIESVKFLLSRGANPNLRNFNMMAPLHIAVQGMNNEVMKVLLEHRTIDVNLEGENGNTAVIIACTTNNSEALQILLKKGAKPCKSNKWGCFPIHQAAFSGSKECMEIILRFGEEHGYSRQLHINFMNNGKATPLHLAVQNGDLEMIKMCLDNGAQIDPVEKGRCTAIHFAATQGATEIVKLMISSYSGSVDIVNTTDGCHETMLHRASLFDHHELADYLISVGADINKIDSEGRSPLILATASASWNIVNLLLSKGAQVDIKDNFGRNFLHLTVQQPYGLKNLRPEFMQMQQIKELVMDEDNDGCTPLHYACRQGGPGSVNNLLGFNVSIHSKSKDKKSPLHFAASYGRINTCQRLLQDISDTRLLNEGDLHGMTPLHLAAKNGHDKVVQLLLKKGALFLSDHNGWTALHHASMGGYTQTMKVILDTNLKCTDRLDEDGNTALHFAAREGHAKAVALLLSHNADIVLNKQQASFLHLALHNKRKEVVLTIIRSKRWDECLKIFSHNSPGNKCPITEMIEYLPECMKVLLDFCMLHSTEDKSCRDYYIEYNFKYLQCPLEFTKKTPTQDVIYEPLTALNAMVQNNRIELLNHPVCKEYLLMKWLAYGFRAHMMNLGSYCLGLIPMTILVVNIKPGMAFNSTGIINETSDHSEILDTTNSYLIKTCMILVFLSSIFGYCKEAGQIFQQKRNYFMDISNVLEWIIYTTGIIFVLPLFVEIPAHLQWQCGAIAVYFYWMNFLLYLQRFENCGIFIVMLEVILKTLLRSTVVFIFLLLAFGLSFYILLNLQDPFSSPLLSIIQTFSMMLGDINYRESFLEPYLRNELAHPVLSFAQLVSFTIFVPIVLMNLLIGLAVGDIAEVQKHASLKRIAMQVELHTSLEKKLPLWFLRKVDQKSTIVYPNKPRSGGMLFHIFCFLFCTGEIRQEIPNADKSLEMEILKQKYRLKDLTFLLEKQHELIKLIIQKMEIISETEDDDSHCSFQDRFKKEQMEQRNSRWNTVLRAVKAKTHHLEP
T2 sequence (Q8NER1 whole entry): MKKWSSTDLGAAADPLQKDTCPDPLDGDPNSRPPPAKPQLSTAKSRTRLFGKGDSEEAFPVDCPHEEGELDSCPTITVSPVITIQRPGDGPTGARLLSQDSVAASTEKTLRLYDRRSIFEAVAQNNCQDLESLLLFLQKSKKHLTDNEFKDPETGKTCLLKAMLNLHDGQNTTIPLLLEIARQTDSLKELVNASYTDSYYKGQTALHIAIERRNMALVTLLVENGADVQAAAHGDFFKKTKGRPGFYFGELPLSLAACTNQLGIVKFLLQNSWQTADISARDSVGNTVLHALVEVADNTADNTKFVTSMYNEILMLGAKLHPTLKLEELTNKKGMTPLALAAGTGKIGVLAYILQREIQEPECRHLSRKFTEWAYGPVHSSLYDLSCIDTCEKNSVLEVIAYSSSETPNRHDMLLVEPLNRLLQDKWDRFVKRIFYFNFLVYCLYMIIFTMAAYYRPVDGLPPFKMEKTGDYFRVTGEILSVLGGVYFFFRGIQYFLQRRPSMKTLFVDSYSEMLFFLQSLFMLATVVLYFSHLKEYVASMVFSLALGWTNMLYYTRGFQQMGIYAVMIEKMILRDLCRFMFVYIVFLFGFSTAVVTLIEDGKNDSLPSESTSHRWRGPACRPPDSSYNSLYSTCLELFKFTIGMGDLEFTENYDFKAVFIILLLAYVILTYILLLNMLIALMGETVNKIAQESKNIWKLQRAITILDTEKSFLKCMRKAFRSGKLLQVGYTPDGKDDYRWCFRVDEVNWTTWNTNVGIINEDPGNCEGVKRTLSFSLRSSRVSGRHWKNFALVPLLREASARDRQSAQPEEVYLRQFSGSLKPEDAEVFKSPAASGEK
T3 sequence (Q8TD43 whole entry): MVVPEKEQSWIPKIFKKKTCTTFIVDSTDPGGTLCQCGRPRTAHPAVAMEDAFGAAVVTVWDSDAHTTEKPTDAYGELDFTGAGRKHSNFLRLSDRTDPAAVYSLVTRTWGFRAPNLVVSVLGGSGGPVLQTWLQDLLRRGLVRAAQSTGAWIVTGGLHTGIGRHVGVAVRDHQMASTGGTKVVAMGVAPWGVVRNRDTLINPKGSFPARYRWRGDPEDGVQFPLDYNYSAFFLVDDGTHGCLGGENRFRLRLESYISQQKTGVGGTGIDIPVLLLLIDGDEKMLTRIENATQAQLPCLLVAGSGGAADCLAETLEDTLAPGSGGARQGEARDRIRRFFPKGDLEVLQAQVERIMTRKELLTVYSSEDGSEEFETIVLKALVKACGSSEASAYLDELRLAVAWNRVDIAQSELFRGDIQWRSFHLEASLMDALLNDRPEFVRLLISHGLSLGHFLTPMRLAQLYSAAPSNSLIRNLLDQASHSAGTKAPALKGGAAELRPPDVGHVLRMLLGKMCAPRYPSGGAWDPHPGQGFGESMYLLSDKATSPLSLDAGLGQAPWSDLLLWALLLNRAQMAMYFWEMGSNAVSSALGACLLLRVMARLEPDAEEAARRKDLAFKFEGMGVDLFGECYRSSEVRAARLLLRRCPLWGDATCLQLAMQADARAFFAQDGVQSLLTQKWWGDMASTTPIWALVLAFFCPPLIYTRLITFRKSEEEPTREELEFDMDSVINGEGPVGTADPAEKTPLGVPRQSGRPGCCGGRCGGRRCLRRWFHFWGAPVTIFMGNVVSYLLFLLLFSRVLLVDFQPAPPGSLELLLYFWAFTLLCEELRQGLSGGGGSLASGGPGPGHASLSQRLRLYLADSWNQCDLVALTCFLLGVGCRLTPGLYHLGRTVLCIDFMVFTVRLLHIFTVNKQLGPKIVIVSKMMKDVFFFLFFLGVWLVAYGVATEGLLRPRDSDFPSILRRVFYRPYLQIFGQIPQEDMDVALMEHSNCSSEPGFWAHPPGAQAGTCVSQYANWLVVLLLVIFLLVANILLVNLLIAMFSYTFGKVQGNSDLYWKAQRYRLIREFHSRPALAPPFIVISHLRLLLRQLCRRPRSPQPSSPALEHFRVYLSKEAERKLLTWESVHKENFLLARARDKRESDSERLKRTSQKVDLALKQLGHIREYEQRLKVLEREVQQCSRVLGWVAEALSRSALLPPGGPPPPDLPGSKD

## Cc1ccc(O)cc1C [3,4-dimethylphenol]
Parental HEK293 cells; cells not expressing TRPA1
  response of parental HEK293 cells (in words): no response

## CC12CCC(C(=O)C1=O)C2(C)C (centres unmarked) [camphorquinone]
hTRPA1 [1]; TRPA1 HEK293 cells, FIGS. 8C and 8D, read-out: EC50 of agonist response in TRPA1
  EC50: ~300 µM
hTRPA1 [1]; [4]
  TRPA1 activation / agonist activity (in words): triggers an agonist response; also recorded: are TRPA1 agonists; also recorded: have agonist activity
hTRPA1 [2]; HEK293 cells
  inhibition of thymol activated TRPA1 (in words): do not act as agonists of thymol activation of TRPA1
hTRPA1 [2]; TRPA1 transfected HEK293 cells, compound first, then agonist
  effect on subsequent thymol and cinnamaldehyde responses (in words): desensitizes thymol and cinnamaldehyde responses

## Oc1ccccc1 [phenol]
hTRPA1 [1]
  TRPA1 activation / agonist activity (in words): did not generate the same increase in relative fluorescence
hTRPV1
  response of cells expressing hTRPV1 (in words): generated an increase in relative fluorescence
hTRPM4B
  response of cells expressing hTRPM4B (in words): did not generate the same increase in relative fluorescence
hTRPM5
  response of cells expressing hTRPM5 (in words): did not generate the same increase in relative fluorescence
mice; mouse, in vivo
  taste aversion, licks/trial (in words): a decrease in licks/trial

## CC(C)c1cccc(C(C)C)c1O [Propofol]
hTRPA1 [1]
  EC50: 13 ± 6 µM
  TRPA1 activation / agonist activity (in words): generated an increase in relative fluorescence
Parental HEK293 cells
  response of parental HEK293 cells (in words): background fluorescence
hTRPV1
  response of cells expressing hTRPV1 (in words): did not generate the same increase in relative fluorescence
hTRPM4B
  response of cells expressing hTRPM4B (in words): did not generate the same increase in relative fluorescence
hTRPM5
  response of cells expressing hTRPM5 (in words): did not generate the same increase in relative fluorescence
mice; mouse, in vivo
  taste aversion, licks/trial (in words): a decrease in licks/trial

## CC1(C)C2CCC1(CS(N)(=O)=O)C(=O)C2 (centres unmarked) [camphorsufomamide]
hTRPA1 [1]; [4]
  TRPA1 activation / agonist activity (in words): have agonist activity
hTRPA1 [2]; HEK293 cells
  inhibition of thymol activated TRPA1 (in words): do not act as agonists of thymol activation of TRPA1

## CC12CCC(CC1=O)C2(C)C (centres unmarked) [Camphor]
hTRPA1 [1]; [4]
  TRPA1 activation / agonist activity (in words): has no agonist activity
hTRPA1 [1]; hTRPA1 HEK293 cells, increase in fluorescence of membrane potential dye, listed as camphor
  TRPA1 activation / agonist activity (in words): are TRPA1 agonists
hTRPA1 [2]; HEK293 cells
  inhibition of allyl isothiocyanate activated TRPA1 (in words): fully inhibited
  inhibition of cinnamaldehyde activated TRPA1 (in words): fully inhibited
  inhibition of thymol activated TRPA1 (in words): fully inhibited
hTRPA1 [2]; HEK293 cells, listed as camphor
  inhibition of thymol activated TRPA1 (in words): agonists of thymol activation of TRPA1
hTRPA1 [3]
  inhibition of allyl isothiocyanate activated TRPA1 (in words): potentially inhibits
  inhibition of cinnamaldehyde activated TRPA1 (in words): potentially inhibits
  inhibition of thymol activated TRPA1 (in words): fully inhibits

## Cc1ccccc1O [o-Cresol]
hTRPA1 [1]; HEK293 cells stably transfected with hTRPA1, FMP dye, FLIPR
  EC50: 327 ± 132 µM
hTRPA1 [1]; [4]
  TRPA1 activation / agonist activity (in words): generated an increase in relative fluorescence
Parental HEK293 cells; cells not expressing TRPA1
  response of parental HEK293 cells (in words): no response
hTRPV1; HEK293, increasing concentrations, FIG. 6
  response of cells expressing hTRPV1 (in words): did not generate the same increase in relative fluorescence
hTRPM4B; CHO, increasing concentrations, FIG. 6
  response of cells expressing hTRPM4B (in words): did not generate the same increase in relative fluorescence
hTRPM5; increasing concentrations, FIG. 6
  response of cells expressing hTRPM5 (in words): did not generate the same increase in relative fluorescence
mice; mice, increasing concentrations
  taste aversion, licks/trial (in words): a decrease in licks/trial
